# Experimental data reported in US20110144014A1, “CYTOKINE RECEPTOR MODULATORS AND USES THEREOF” (CENTRE HOSPITALIER UNIVERSITAIRE SAINTE-JUSTINE, priority 2005, published 2011).
# Where a SMILES comes first, the peptide text is derived from it. [ ]: non-standard residue; d: D form.
# Tests used:
# [1] = system: PMA-induced ear skin inflammation; test: PMA-induced skin dermatitis of rat ears; format: in vivo; conditions: topical
# Description: To verify the efficacy of a topical application of API-101.10 in a skin model of inflammation, 10 μl of 0.05% (in acetone) of the irritating agent PMA was applied on ears of 5 weeks old CD-1 male […] (Charles River) to induce contact dermatitis. The right ear received the vehicle only and left ear received the peptide or IL-1Ra analog Kineret® (Amgen). Ten μl of a final concentration of 10^−5M peptide diluted in PEG was applied 45 minutes and 4 hours after the induction of the inflammation with PMA. The commercial analog of IL-1R antagonist (IL-Ra), Kineret® was applied as a positive control at a concentration of 50 μg/10 μl of PEG. The drug was applied with a pipet tip adapted for the viscosity of the solution. Eighteen hours after the peptide treatment animals were sacrificed and ears were cut, weighed and their […] was measured with a caliper. Ear tumefaction (%) was determined: […] where a=thickness of left treated ear and b=thickness of right control ear.
# HEK293 cells = test: Binding of I125-API-101.10 in HEK293 cells not containing IL-1R
# Text: Thymocytes freshly isolated from rat thymus were resuspended at a concentration of 10^7 cell/ml in PBS (phosphate buffered saline) buffer pH 8.0 (reaction buffer) and washed three times with ice-cold reaction buffer. The reaction mixture for each sample contained: 10^6 cells and 10^7 cpm of 125API-101.10. One sample also contained […] of cold API-101.10 peptide. In the negative control HEK-293 cells containing a negligible amount of IL-1R were used. Each sample volume was then raised to 250 μl with reaction buffer. Samples were incubated at room temperature and/or 37° for 45 minutes to allow peptide binding. The non-permeable cross-linker BS3 (Bis(sulfosuccinimidyl)suberate) was then added to a final concentration of 2.5 mM and samples were incubated at 4° C. for 30 minutes to minimize active internalization of BS3 (11.4 Å) (Pierce) (Partis, J. Prot. Chem. 293:263-277, 1983; Cox et al., J. Immunol. 145:1719-1726, 1990; and Knoller et al., J. Biol. Chem. 266:2795-2804, 1991). The reaction was quenched with 20 mM TRIS pH 7.5 for 15 minutes at room temperature. Cells were centrifuged at 4000 rpm for 10 minutes, lysed for 30 minutes on ice with 150 μl of RIPA buffer (50 mM Tris HCl pH7.4; 150 mM NaCl; 1 mM EDTA; 2 mM Na3VO4; 1 mM NaF; 1% NP-40; 0.25% Nadeoxycholate). […] Radioactivity was determined is every cell lysate with a Packard CobraII autogamma counter.
structure (smiles),measurement,setting,value
"CC(C)C[C@@H](NC(=O)[C@@H](CCC(=O)O)NC(=O)[C@H](NC(=O)[C@H](NC(=O)[C@@H](Cc1ccc(O)cc1)NC(=O)[C@H](N)CCCNC(=N)N)[C@H](C)O)C(C)C)C(=O)N[C@H](C)C(N)=O [API-101.10, RYTVELA] (H-[dR][dY][dT][dV][dE][dL][dA]-NH2; N-terminus and C-terminus assumed)",ear weight compared with PMA-induced inflamed ear,[1]; 10^−5M in PEG,reduction in weight
same,prevention of ear tumefaction,"[1]; 10 μl of 10^−5M in PEG, 45 min and 4 h after PMA",50%
same,binding in cells not containing IL-1R,HEK293 cells,does not occur
